Molecular target: Human recombinant DHX9 protein (Homo sapiens (Human), UniProt Q08211)
Assay: DHX9 ATPase assay (ADP-Glo)
Assay type: biochemical
Settings: for IC50: read-out: DHX9 Biochemical Inflection Point

Sequence of Human recombinant DHX9 protein (Q08211 whole entry): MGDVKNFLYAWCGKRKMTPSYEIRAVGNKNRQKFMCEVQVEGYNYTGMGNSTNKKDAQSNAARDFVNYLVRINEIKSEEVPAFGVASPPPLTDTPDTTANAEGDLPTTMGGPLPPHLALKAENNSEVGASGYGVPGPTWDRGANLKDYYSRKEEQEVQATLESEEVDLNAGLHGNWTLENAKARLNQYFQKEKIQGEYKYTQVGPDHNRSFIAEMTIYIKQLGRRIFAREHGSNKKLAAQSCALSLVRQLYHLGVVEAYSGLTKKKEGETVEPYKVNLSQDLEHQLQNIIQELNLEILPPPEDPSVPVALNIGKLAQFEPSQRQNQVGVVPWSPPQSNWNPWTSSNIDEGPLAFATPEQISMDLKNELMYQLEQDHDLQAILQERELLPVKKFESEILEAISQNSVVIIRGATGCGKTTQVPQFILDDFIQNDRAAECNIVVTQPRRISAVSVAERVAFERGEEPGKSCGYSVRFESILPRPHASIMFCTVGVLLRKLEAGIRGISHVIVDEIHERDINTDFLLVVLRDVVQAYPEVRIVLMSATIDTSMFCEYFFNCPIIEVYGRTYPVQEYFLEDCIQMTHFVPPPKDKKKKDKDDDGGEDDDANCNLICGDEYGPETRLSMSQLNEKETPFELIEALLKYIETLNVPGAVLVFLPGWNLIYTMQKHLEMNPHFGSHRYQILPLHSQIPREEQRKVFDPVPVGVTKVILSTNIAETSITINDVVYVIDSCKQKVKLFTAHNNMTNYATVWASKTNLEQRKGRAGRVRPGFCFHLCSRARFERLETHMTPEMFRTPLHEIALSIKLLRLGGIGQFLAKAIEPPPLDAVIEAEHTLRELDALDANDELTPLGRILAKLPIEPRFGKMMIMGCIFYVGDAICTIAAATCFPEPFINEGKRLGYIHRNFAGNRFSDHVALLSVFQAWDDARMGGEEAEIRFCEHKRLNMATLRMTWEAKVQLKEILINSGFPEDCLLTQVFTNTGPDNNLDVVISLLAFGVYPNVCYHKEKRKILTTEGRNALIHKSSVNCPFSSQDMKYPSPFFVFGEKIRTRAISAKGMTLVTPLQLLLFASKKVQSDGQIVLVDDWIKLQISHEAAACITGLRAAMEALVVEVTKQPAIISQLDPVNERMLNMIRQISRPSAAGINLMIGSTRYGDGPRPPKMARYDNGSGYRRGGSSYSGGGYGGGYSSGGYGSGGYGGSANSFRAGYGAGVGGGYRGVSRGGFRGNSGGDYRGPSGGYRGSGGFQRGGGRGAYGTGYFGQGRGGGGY

Row | SMILES | DHX9 Biochemical Max Inhibition | IC50
1 | CCS(=O)(=O)Nc1cc(Cl)cc(NC(=O)c2cc(-c3ncc(OC(C)C)cn3)c(C)s2)c1 [Example 565] | 60 | 0.0371 µM
2 | CCS(=O)(=O)Nc1cc(Cl)cc(NC(=O)c2cc(-c3ncc(OC(C)(C)C)cn3)c(C)s2)c1 [Example 566] | 66 | 0.186 µM
3 | Cn1cc(C(=O)Nc2cc(Cl)cc(NS(C)(=O)=O)c2)cc1-c1c(F)cc(F)c[n+]1[O-] [Example 567] | 77 | 0.0584 µM
4 | COc1cc(F)cnc1-c1cc(C(=O)Nc2cc(Cl)cc(NS(C)(=O)=O)c2)cn1C [Example 568, N-(3-chloro-5-methanesulfonamidophenyl)-5-(5-fluoro-3-methoxypyridin-2-yl)-1-methylpyrrole-3-carboxamide] | 77.3 | 0.0079 µM
5 | Cn1cc(C(=O)Nc2cc(Cl)cc(NS(C)(=O)=O)c2)cc1-c1ccc(C(F)(F)F)cn1 [Example 569] | 75.9 | 0.0556 µM
6 | Cn1cc(C(=O)Nc2cc(Cl)cc(NS(C)(=O)=O)c2)cc1-c1ccc(C#N)cn1 [Example 570] | 69.8 | 0.0214 µM
7 | Cn1cc(C(=O)Nc2cc(Cl)cc(NS(C)(=O)=O)c2)cc1-c1ncc(C(F)(F)F)cn1 [Example 571] | 71.3 | 0.0211 µM
8 | CCOc1ccc(-c2cc(C(=O)Nc3cc(Cl)cc(NS(C)(=O)=O)c3)cn2C)nc1 [Example 572] | 73.3 | 0.0112 µM
9 | COc1ccc(-c2cc(C(=O)Nc3cc(Cl)cc(NS(C)(=O)=O)c3)cn2C)nc1 [Example 573] | 82.8 | 0.0155 µM
10 | COCc1ccc(-c2cc(C(=O)Nc3cc(Cl)cc(NS(C)(=O)=O)c3)cn2C)nc1 [Example 574] | 80.6 | 0.0075 µM
11 | Cn1cc(C(=O)Nc2cc(Cl)cc(NS(C)(=O)=O)c2)cc1-c1ccc(F)cn1 [Example 575] | 76.2 | 0.0177 µM
12 | Cn1cc(C(=O)Nc2cc(Cl)cc(NS(C)(=O)=O)c2)cc1-c1ccc(Cl)cn1 [Example 576] | 68.1 | 0.0285 µM
13 | Cn1cc(C(=O)Nc2cc(Cl)cc(NS(C)(=O)=O)c2)cc1-c1ncc(Cl)cn1 [Example 577] | 91.5 | 0.0249 µM
14 | Cc1cc(C(=O)Nc2cc(Cl)cc(NS(C)(=O)=O)c2)cn1-c1ncc(Cl)cn1 [Example 578] | 70.1 | 0.149 µM
15 | CCS(=O)(=O)Nc1cc(Cl)cc(NC(=O)c2cc(-c3ccc(F)cn3)n(C)c2)c1 [Example 579] | 65.2 | 0.0311 µM
16 | Cc1cnc(-c2cc(C(=O)Nc3cc(Cl)cc(NS(C)(=O)=O)c3)cn2C)c(F)c1 [Example 580] | 70.5 | 0.0239 µM
17 | Cn1cc(C(=O)Nc2cc(Cl)cc(NS(=O)(=O)CCO)c2)cc1-c1ncc(F)cc1F [Example 581] | 50.5 | 0.0991 µM

Row | SMILES | DHX9 Biochemical Max Inhibition | IC50
18 | Cc1sc(C(=O)Nc2cc(Cl)cc(NS(=O)(=O)CCO)c2)cc1-c1ncc(OC(C)C)cn1 [Example 582] | 49.9 | 0.287 µM
19 | Cc1sc(C(=O)Nc2cc(Cl)cc(NS(C)(=O)=O)c2)cc1-c1ncc(O)cn1 [Example 583] | 72.5 | 0.0049 µM
20 | Cn1cc(C(=O)Nc2cc(Cl)cc(NS(C)(=O)=O)c2)cc1-c1ncccc1OCC1CC1 [Example 584] | 63.5 | 0.017 µM
21 | Cc1sc(C(=O)Nc2cc(Cl)cc(NS(C)(=O)=O)c2)cc1-c1ncc(C#N)cn1 [Example 585] | 70.9 | 0.0229 µM
22 | CCc1sc(C(=O)Nc2cc(Cl)cc(NS(C)(=O)=O)c2)cc1-c1ncccc1F [Example 587] | 70.9 | 0.0167 µM
23 | CCc1sc(C(=O)Nc2cc(Cl)cc(NS(C)(=O)=O)c2)cc1-c1ncc(F)cc1F [Example 588] | 67.7 | 0.103 µM
24 | CCc1sc(C(=O)Nc2cc(Cl)cc(NS(C)(=O)=O)c2)cc1-c1ccc(F)cn1 [Example 589] | 69.7 | –
25 | Cc1sc(C(=O)Nc2cc(Cl)cc(NS(C)(=O)=O)c2)cc1-c1ccc(N2CCN(C(=O)C3CC3)CC2)cn1 [Example 590, N-(3-chloro-5-methanesulfonamidophenyl)-4-[5-(4-cyclopropanecarbonylpiperazin-1-yl)pyridin-2-yl]-5-methylthiophene-2-carboxamide] | 74.8 | 0.0059 µM
26 | Cn1cc(C(=O)Nc2cc(Cl)cc(NS(C)(=O)=O)c2)cc1-c1ccc(N2CCN(C(=O)C(C)(C)C)CC2)cn1 [Example 591] | 65.9 | 0.0183 µM
27 | Cn1cc(C(=O)Nc2cc(Cl)cc(NS(C)(=O)=O)c2)cc1-c1ccc(N2CCN(C(=O)C3CCCC3)CC2)cn1 [Example 592] | 77.5 | 0.0541 µM
28 | Cn1cc(C(=O)Nc2cc(Cl)cc(NS(C)(=O)=O)c2)cc1-c1ccc(N2CCN(C(=O)C3CCC3)CC2)cn1 [Example 593] | 99.9 | 0.03 µM
29 | Cn1cc(C(=O)Nc2cc(Cl)cc(NS(C)(=O)=O)c2)cc1-c1ccc(N2CCN(C(=O)C3CC3)CC2)cn1 [Example 594] | 80.1 | 0.0109 µM
30 | Cn1cc(C(=O)Nc2cc(Cl)cc(NS(C)(=O)=O)c2)cc1-c1ccc(N2CC(F)(F)C2)cn1 [Example 595, N-(3-chloro-5-methanesulfonamidophenyl)-5-[5-(3,3-difluoroazetidin-1-yl)pyridin-2-yl]-1-methyl-1H-pyrrole-3-carboxamide] | 69.35 | 0.0175 µM
31 | COC(=O)N1CCN(c2ccc(-c3cc(C(=O)Nc4cc(Cl)cc(NS(C)(=O)=O)c4)cn3C)nc2)CC1 [Example 596] | 72.2 | 0.0181 µM
32 | Cn1cc(C(=O)Nc2cc(Cl)cc(NS(C)(=O)=O)c2)cc1-c1ncc(N2CC(F)(F)C2)cn1 [Example 597] | 69.1 | 0.022 µM
33 | Cn1cc(C(=O)Nc2cc(Cl)cc(NS(C)(=O)=O)c2)cc1-c1ncc(N2CC(F)C2)cn1 [Example 598] | 72.1 | 0.0164 µM
34 | Cn1cc(C(=O)Nc2cc(Cl)cc(NS(C)(=O)=O)c2)cc1-c1ncc(N2CC(F)(F)C2)cc1F [Example 599] | 88.7 | 0.0192 µM

Reference: US20240316047A1, “INHIBITORS OF RNA HELICASE DHX9 AND USES THEREOF” (ACCENT THERAPEUTICS, INC., priority 2022, published 2024)
